Test results taken from ChEMBL document CHEMBL5321237 (Eur J Med Chem, 2023).

Experiments:
[1] = biological target: T1, Macrophage colony-stimulating factor 1 receptor (Mus musculus, UniProt P09581); assay: Inhibition of CSF1-induced CSF1R signalling in mouse BMDM cells assessed as reduction in ERK1/2 phosphorylation preincubated for 30 mins followed by CSF1 addition and measured after 10 mins; format: cell-based
T1 sequence (P09581 whole entry): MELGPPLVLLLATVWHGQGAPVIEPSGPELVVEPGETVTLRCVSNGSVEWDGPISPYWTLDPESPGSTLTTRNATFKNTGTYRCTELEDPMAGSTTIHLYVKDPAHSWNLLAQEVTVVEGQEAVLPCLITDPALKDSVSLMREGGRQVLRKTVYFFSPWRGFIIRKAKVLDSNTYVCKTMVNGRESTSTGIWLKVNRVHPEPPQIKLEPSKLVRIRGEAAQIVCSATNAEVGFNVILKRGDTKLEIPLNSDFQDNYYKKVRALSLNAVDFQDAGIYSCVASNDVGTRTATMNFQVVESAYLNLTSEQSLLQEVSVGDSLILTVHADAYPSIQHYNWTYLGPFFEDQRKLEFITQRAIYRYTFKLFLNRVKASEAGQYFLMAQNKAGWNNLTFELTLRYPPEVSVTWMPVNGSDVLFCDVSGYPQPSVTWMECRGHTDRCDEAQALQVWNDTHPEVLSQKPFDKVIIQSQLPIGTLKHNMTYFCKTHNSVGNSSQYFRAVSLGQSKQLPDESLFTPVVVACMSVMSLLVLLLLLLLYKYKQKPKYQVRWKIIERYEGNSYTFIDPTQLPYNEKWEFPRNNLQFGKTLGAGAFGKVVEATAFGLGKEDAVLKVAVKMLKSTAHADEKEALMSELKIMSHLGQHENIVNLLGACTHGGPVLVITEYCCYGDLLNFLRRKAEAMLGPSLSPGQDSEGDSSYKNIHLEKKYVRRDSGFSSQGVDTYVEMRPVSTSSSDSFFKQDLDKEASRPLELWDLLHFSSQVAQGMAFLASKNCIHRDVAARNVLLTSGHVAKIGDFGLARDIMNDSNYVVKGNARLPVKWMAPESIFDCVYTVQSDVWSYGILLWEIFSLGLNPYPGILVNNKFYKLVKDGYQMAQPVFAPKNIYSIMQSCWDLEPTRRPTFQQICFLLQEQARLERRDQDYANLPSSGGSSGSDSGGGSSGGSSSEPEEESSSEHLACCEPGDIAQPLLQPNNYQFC

[2] = tested on: Tyrosine-protein kinase ABL1 (Homo sapiens), P00519 [H396P]; assay: Competitive binding affinity to human ABL1 H396P mutant at 500 nM incubated for 1 hr by qPCR analysis relative to control
[3] = tested on: T2, Receptor-type tyrosine-protein kinase FLT3 (Homo sapiens), P36888 [D835V]; assay: Competitive binding affinity to human FLT3 D835V mutant at 500 nM incubated for 1 hr by qPCR analysis relative to control
T2 sequence (whole entry): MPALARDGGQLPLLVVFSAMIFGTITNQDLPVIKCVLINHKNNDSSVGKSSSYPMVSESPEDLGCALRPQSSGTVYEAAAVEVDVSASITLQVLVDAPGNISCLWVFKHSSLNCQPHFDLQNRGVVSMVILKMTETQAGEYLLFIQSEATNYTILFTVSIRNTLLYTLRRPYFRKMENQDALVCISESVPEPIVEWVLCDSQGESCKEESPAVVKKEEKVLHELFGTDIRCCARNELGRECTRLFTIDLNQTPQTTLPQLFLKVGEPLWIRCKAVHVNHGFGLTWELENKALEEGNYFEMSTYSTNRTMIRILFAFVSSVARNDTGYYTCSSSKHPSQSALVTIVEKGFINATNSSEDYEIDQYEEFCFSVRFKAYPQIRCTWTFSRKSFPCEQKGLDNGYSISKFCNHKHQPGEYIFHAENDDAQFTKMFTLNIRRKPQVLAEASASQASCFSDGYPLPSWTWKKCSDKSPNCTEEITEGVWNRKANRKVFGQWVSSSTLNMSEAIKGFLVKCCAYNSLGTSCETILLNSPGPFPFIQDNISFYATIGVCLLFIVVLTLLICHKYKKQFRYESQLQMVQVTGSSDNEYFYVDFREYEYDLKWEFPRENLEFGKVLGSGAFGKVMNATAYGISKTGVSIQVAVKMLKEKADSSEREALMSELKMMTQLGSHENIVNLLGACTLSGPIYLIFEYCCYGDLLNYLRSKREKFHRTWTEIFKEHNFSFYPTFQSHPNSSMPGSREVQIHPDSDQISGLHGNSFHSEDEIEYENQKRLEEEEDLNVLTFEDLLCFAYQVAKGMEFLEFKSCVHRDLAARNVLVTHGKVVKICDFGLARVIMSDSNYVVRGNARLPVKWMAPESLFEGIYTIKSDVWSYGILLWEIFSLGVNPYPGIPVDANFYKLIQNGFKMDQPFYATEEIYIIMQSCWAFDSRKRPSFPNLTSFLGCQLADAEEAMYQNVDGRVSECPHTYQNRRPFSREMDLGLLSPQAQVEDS

Compound CN(CC1CCCC1)c1ncnc2[nH]c(-c3ccc(CO)cc3)nc12 has an IC50 [1] of 40 nM, an Activity [2] of 96% and an Activity [3] of 92%.
